Data taken from patent US10945981B2, “Methods for treating familial adenomatous polyposis” (CANCER PREVENTION PHARMACEUTICALS, INC., priority 2019, dated 2021).
“Also recorded” adds a separate entry of the source.

Legend:
[1] = test system: patients with Familial Adenomatous Polyposis (FAP); assay: Randomized, double-blind phase III trial in FAP patients: safety (adverse events); conditions: for Treatment-related serious adverse events: 1 patient each
[2] = test system: patients with Familial Adenomatous Polyposis (FAP); assay: Randomized, double-blind phase III trial in FAP patients: FAP-related events (efficacy); assay type: in vivo, human; conditions: for Mean time to first FRE: Kaplan-Meier estimated; for Hazard ratio: combination versus the arm named
From the text: Patients were stratified by anatomic site with highest polyp burden and surgical status: (a) post colectomy with rectal or ileal pouch polyposis (longest projected time to first FRE); (b) with duodenal polyposis (intermediate projected time to first FRE); and (c) pre-colectomy (shortest projected time to first FRE) prior to randomization to minimize treatment imbalance.
A stratified randomization procedure was used with stratification based on FAP-related time-to-first-event prognosis (see FIG. 1). The event prognosis groups were represented by 1) best (i.e., longest projected time to first FAP-related event)—rectal/pouch polyposis (Post-colectomy (≥3 years S/P IRA or IPAA with >10 polyps; any polyps >5 mm excised at baseline)), 2) intermediate—duodenal polyposis (Spigelman Stage 3 or 4 or Spigelman Stage 3 or 4 down-staged to Spigelman 1 or 2 within the past 6 months), and 3) worst—pre-colectomy. If a subject has two or more of these disease sites, the most severe prognosis stratum was assigned for randomization (e.g. worst>intermediate>best). Since an individual may have more than one disease site involved, the trial assessed time to any defined FAP-related event in the subject as a whole. In order to minimize potential treatment arm imbalance a centralized randomization process was used to balance among treatment groups within prognostic strata.
Lower GI Endoscopy: Patients were evaluated via colonoscopy, flexible or rigid procto-sigmoidoscopy during the screening phase. Biopsies, ablations, and snare excisions at baseline were performed per the clinician's standard of care. If considered eligible based on inclusion criteria, a grossly normal mucosa biopsy was obtained for baseline polyamine measurement. Still and video documentation of the colon (vide infra) or the residual rectum or entire pouch was also obtained for archiving. Polyp size was determined by visual comparison with biopsy forceps that can measure 5.0-5.5 mm in the fully open position. All randomized patients with an intact colon or rectum/pouch had baseline and on-study lower GI endoscopy procedures as part of this trial.
Upper GI Endoscopy: The duodenum was evaluated by forward-viewing and/or side-viewing gastroscopes (with still and video documentation with closed and open biopsy forceps near mucosa). All randomized patients with a duodenum had baseline and on-study UGI endoscopy as part of this trial. Subjects stratified to the duodenal group must have duodenal biopsies of all polyps 1 cm or larger to determine HGD and histology required for determining Stage 3 or 4 Spigelman status.
FAP-related primary events by disease site were as follows: • 1. Pre-operative, intact colon: Disease progression indicating need for colectomy with IRA or total procto-colectomy • 2. Retained rectum or pouch events include one or more of the following: • a) Excisional intervention by endoscopic snare or trans-anal excision to remove any polyp ≥10 mm in size (per pathology report) and/or pathologic evidence of high grade dysplasia. • b) Disease progression indicating need for proctectomy or pouch resection • 3. Duodenal disease includes the following: • a) Progression in Spigelman Stage to more advanced stage (Stage 2, 3 or 4) • b) Disease progression indicating need for excisional intervention (sub-mucosal resection, trans-duodenal excision, ampullectomy, duodenectomy, Whipple procedure) • c) Development of cancer
At six month intervals (+/−two weeks), subjects underwent repeat upper and lower endoscopy. […] Video recordings of all procedures and qualitative assessments were compared to the exam 6 months prior.

[3] = human, in vivo; cited from earlier work
[4] = oral, cited from earlier work
[5] = test system: patients with FAP; conditions: cited from earlier work
[6] = in vivo; cited from earlier work
[7] = disease site colon, number of subjects
[8] = disease site duodenum, number of subjects
[9] = disease site rectum and pouch, number of subjects
[10] = post-colectomy, rectal/ileal pouch stratum

CC1=C(CC(=O)O)c2cc(F)ccc2/C1=C\c1ccc([S+](C)[O-])cc1 (stereo not drawn) [Sulindac, (Z)-5-fluoro-2-methyl-1-((4-(methylsulfinyl)phenyl)methylene)-1H-indene-3-acetic acid]
Discontinuations due to AEs, number of patients [1]: 6 patients | Discontinuations due to AEs, percent of patients [1]: 10.3% | TRAE reported by % of patients [1]: 73.7% | Treatment-related hearing adverse events: Hearing loss N [1]: 2 | Treatment-related hearing adverse events: Tinnitus N [1]: 5 | Treatment-related serious adverse events [1]: Severe Nausea; also recorded: Deep Vein Thrombosis; also recorded: Worsening of Depression; also recorded: Spontaneous Abortion | Treatment-related serious adverse events ([1]; listed as sulindac): severe nausea, deep vein thrombosis, worsening of depression, and spontaneous abortion | Death ([1]; safety population): 0 n (%) | Number of patients discontinuing due to a TRAE ([1]; safety population): 5 (8.8) n (%) | Number of patients reporting TEAEs ([1]; safety population): 50 (87.7) n (%) | Number of patients reporting TEAEs ≥ Grade 3 ([1]; safety population): 12 (21.1) n (%) | Number of patients reporting TRAE: Abdominal distension ([1]; safety population): 3 (5.3) n (%) | Number of patients reporting TRAE: Abdominal pain ([1]; safety population): 4 (7.0) n (%) | Number of patients reporting TRAE: Alopecia ([1]; safety population): 3 (5.3) n (%) | Number of patients reporting TRAE: Decreased appetite ([1]; safety population): 4 (7.0) n (%) | Number of patients reporting TRAE: Depression ([1]; safety population): 3 (5.3) n (%) | Number of patients reporting TRAE: Diarrhea ([1]; safety population): 3 (5.3) n (%) | Number of patients reporting TRAE: Dizziness ([1]; safety population): 2 (3.5) n (%) | Number of patients reporting TRAE: Dyspepsia ([1]; safety population): 4 (7.0) n (%) | Number of patients reporting TRAE: Fatigue ([1]; safety population): 4 (7.0) n (%) | Number of patients reporting TRAE: Flatulence ([1]; safety population): 3 (5.3) n (%) | Number of patients reporting TRAE: Frequent bowel movements ([1]; safety population): 1 (1.8) n (%) | Number of patients reporting TRAE: Gastritis erosive ([1]; safety population): 0 n (%) | Number of patients reporting TRAE: Headache ([1]; safety population): 7 (12.3) n (%) | Number of patients reporting TRAE: Hematochezia ([1]; safety population): 2 (3.5) n (%) | Number of patients reporting TRAE: Nausea ([1]; safety population): 9 (15.8) n (%) | Number of patients reporting TRAE: Pruritus ([1]; safety population): 4 (7.0) n (%) | Number of patients reporting TRAE: Rash ([1]; safety population): 0 n (%) | Number of patients reporting TRAE: Rectal hemorrhage ([1]; safety population): 4 (7.0) n (%) | Number of patients reporting TRAE: Thrombocytopenia ([1]; safety population): 3 (5.3) n (%) | Number of patients reporting TRAE: Tinnitus ([1]; safety population): 5 (8.8) n (%) | Number of patients reporting TRAE: Upper abdominal pain ([1]; safety population): 1 (1.8) n (%) | Number of patients reporting TRAE: Vomiting ([1]; safety population): 4 (7.0) n (%) | Number of patients reporting TRAEs ([1]; safety population): 42 (73.7) n (%) | Number of patients reporting TRSAEs ([1]; safety population): 4 (7.0) n (%) | Kaplan-Meier estimated mean time to first FRE ([2]; ITT population): 23.6 months | Event-free rate ([2]; ITT population, cumulative): 63.1% | FREs occurred, percent of patients ([2]; ITT population, cumulative): 37.9% | Surgical FAP-related events, Colon: Event-free proportion ([2]; disease site colon): 69.2% | Surgical FAP-related events, Colon: Colectomy [2, 7]: 2 | Surgical FAP-related events, Colon: Disease progression [2, 7]: 4 | Surgical FAP-related events, Duodenum: Event-free proportion ([2]; disease site duodenum): 70.2% | Surgical FAP-related events, Duodenum: Disease progression [2, 8]: 10 | Surgical FAP-related events, Duodenum: Excisional intervention [2, 8]: 6 | Surgical FAP-related events, Duodenum: Spigelman stage progression [2, 8]: 7 | Surgical FAP-related events, Rectum and Pouch: Event-free proportion ([2]; disease site rectum and pouch): 95% | Surgical FAP-related events, Rectum and Pouch: Disease progression [2, 9]: 2 | Surgical FAP-related events, Rectum and Pouch: Proctectomy/pouch resection [2, 9]: 1 | FRE type: Duodenal excision ([2]; duodenal polyposis stratum): 6 | FRE type: Duodenal excision and Spigelman stage progression ([2]; duodenal polyposis stratum): 2 | FRE type: Duodenal excision and ≥ 10 mm polyp removed in rectum/pouch ([2]; duodenal polyposis stratum): 1 | FRE type: Proctocolectomy and ≥ 10 mm polyp removed in rectum/pouch ([2]; duodenal polyposis stratum): 1 | FRE type: Spigelman stage progression ([2]; duodenal polyposis stratum): 3 | FRE type: ≥10 mm polyp removed in rectum/pouch ([2]; duodenal polyposis stratum): 1 | Patients with FRE, % ([2]; duodenal polyposis stratum): (41.2) % | Total FRE ([2]; duodenal polyposis stratum): 14 | Mean time to first FRE ([2]; duodenal polyposis stratum): 21.1 months | Risk reduction versus combination ([2]; duodenal polyposis stratum, combination relative to the arm named): 29% | Hazard ratio ([2]; duodenal polyposis stratum): 0.716 | Patients with FRE, % ([2]; duodenal polyposis stratum, listed as sulindac): 41.2% | Progression of lower gastrointestinal polyposis: surgeries ([2]; human, in vivo): 3 | Patients with duodenal polyposis progression who underwent duodenal excisional procedures ([2]; number of patients): 6 | FRE type: Pouch resection [2, 10]: 1 | FRE type: ≥10 mm polyp removed in rectum/pouch [2, 10]: 1 | Patients with FRE, % [2, 10]: (18.2) % | Total FRE [2, 10]: 2 | Mean time to first FRE [2, 10]: 27.5 months | Risk reduction versus combination ([2]; post-colectomy, rectal/ileal pouch stratum, combination relative to the arm named): 16% | Hazard ratio [2, 10]: 0.841 | Patients with FRE, % ([2]; post-colectomy, rectal/ileal pouch stratum, listed as sulindac): 18.2% | FRE type: Colectomy ([2]; pre-colectomy stratum): 4 | FRE type: Duodenal excision and Spigelman stage progression ([2]; pre-colectomy stratum): 1 | FRE type: Spigelman stage progression ([2]; pre-colectomy stratum): 1 | Patients with FRE, % ([2]; pre-colectomy stratum): (46.2) % | Total FRE ([2]; pre-colectomy stratum): 6 | Mean time to first FRE ([2]; pre-colectomy stratum): 25.2 months | Hazard ratio ([2]; pre-colectomy stratum): 0.299 | Patients with FRE, % ([2]; pre-colectomy stratum, listed as sulindac): 46.2% | Risk reduction versus combination ([2]; pre-colectomy stratum, risk reduction for FRE of the combination relative to the arm named): 70% | Event Rate of FAP-related Surgery Events in Lower GI ([2]; subjects with lower GI anatomy): 6/58 (10%) | Lower GI surgery events: Need colectomy ([2]; subjects with lower GI anatomy): 4 | Lower GI surgery events: Need pouch resection ([2]; subjects with lower GI anatomy): 1 | Lower GI surgery events: Need proctectomy ([2]; subjects with lower GI anatomy): 1 | Lower GI surgery events: Total Surgical Events ([2]; subjects with lower GI anatomy): 6 | Progression of lower gastrointestinal polyposis: polypectomies ([2]; ≥10 mm in size and/or high grade dysplasia): 4 | Mild gastrointestinal effects, percent of patients [3]: ~20% | Skin rash and pruritus, percent of patients [3]: 5% | Time to peak plasma levels ([4]; fasting patients): about 2 hours | Drug absorbed after oral administration [4]: about 90%

Cc1ccc(-c2cc(C(F)(F)F)nn2-c2ccc(S(N)(=O)=O)cc2)cc1 [celecoxib, 4-[5-(4-Methylphenyl)-3-(trifluoromethyl)pyrazol-1-yl]benzenesulfonamide]
Reduction of measures of global tumor burden from baseline [5]: 30% | Reduction of the number of colonic adenomas [5]: 1% | Increase in rates of heart and blood vessel disease [6]: 30% | Risk of gastrointestinal side effects [6]: greater than 80%
